Data from ChEMBL document CHEMBL1201862, “PubChem BioAssay data set” (2004).
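Each compound was tested at five concentrations against cells in 96-well plates for 48 hours. GI50 = concentration required for 50% inhibition of growth.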 Calls of active or inactive are those of the source. Rule as the data show it: active = GI50 up to about 1.1 µM and inactive = higher.

Legend:
Assay in all cases: growth of human tumour cells (NCI), 48 h
[1] = system: DLD-1
[2] = system: HOP-18
[3] = system: KM-20L2
[4] = system: LXFL 529
[5] = system: M19-MEL
[6] = system: SNB-78
[7] = system: XF498
[8] = system: RXF 631
[9] = system: T47D

Compound	GI50 [1]	GI50 [2]	GI50 [3]	GI50 [4]	GI50 [5]	GI50 [6]	GI50 [7]	GI50 [8]	GI50 [9]
CC(=O)OCCc1cccnc1/C=N/O	> 100 µM (inactive)	> 100 µM (inactive)	> 100 µM (inactive)	> 100 µM (inactive)	> 100 µM (inactive)	> 100 µM (inactive)	> 100 µM (inactive)	–	–
CCOc1ccc(/C=N\N2C(=O)c3ccccc3C2=O)cc1	> 100 µM (inactive)	> 100 µM (inactive)	> 100 µM (inactive)	> 100 µM (inactive)	> 100 µM (inactive)	> 100 µM (inactive)	> 100 µM (inactive)	> 100 µM (inactive)	–
COc1cc(-c2cc(-c3cc([N+](=O)[O-])c(/C=N/NC(=O)c4ccncc4)o3)ccc2OC)ccc1C	> 100 µM (inactive)	–	> 100 µM (inactive)	> 100 µM (inactive)	> 100 µM (inactive)	–	> 100 µM (inactive)	> 100 µM (inactive)	–
CCOC(=O)c1sc2c(C(=O)OCC)n3ccccc3c2c1N	82.2 µM (inactive)	> 100 µM (inactive)	> 100 µM (inactive)	–	> 100 µM (inactive)	50.9 µM (inactive)	25.3 µM (inactive)	–	–
C=CSCCC(N)C(=O)O (configuration not stated)	> 100 µM (inactive)	> 100 µM (inactive)	> 100 µM (inactive)	> 100 µM (inactive)	> 100 µM (inactive)	> 100 µM (inactive)	> 100 µM (inactive)	> 100 µM (inactive)	–
CC(=O)Nc1ccc(S(=O)(=O)N/N=C/c2cc(I)cc([N+](=O)[O-])c2O)cc1	> 100 µM (inactive)	27.7 µM (inactive)	> 100 µM (inactive)	–	66.4 µM (inactive)	37 µM (inactive)	24.1 µM (inactive)	> 100 µM (inactive)	–
O=C1/C(=N\O)C2CCC1C2 (configuration not stated)	–	> 100 µM (inactive)	> 100 µM (inactive)	> 100 µM (inactive)	> 100 µM (inactive)	> 100 µM (inactive)	–	–	–
COc1cc(O)c(C(=O)/C=C/c2ccc(OC)c(OCc3ccccc3)c2)c(OC)c1	> 100 µM (inactive)	> 100 µM (inactive)	> 100 µM (inactive)	5.45 µM (inactive)	> 100 µM (inactive)	2.57 µM (inactive)	> 100 µM (inactive)	–	–
CC1=CC(=O)C(=O)C2=C1OC1(C2)C(C)CCC2C3(C)CCC(O)C(C)(C)C3CCC21C (configuration not stated)	20.1 µM (inactive)	–	18.7 µM (inactive)	15.5 µM (inactive)	18.4 µM (inactive)	22.4 µM (inactive)	18.2 µM (inactive)	–	–
COC(=O)[C@@]12OC[C@]34C([C@@H](O)C1O)[C@@]1(C)CC(=O)C(O)=C(C)C1C[C@H]3OC(=O)[C@H](OC(=O)CC(C)C(F)(F)F)[C@H]42 (some centres not stated)	0.0877 µM (active)	0.308 µM (active)	0.0195 µM (active)	0.00731 µM (active)	0.0164 µM (active)	0.206 µM (active)	0.00522 µM (active)	–	–
C/C(=C\CC[C@]1(C)OC(C)(C)OC1CC/C(C)=C/CO[Si](c1ccccc1)(c1ccccc1)C(C)(C)C)CC/C=C/CO[Si](C)(C)C(C)(C)C (some centres not stated)	> 100 µM (inactive)	–	> 100 µM (inactive)	–	> 100 µM (inactive)	> 100 µM (inactive)	–	–	–
CCN1/C(=C/C(C)=C/c2sc3ccccc3[n+]2CC)Sc2ccccc21	0.207 µM (active)	–	0.191 µM (active)	0.0331 µM (active)	0.173 µM (active)	0.34 µM (active)	0.0762 µM (active)	–	–
O=CN/C=C/c1ccc(O)c(O)c1	> 100 µM (inactive)	–	> 100 µM (inactive)	> 100 µM (inactive)	> 100 µM (inactive)	> 100 µM (inactive)	> 100 µM (inactive)	> 100 µM (inactive)	–
O=c1cc(-c2ccc(O)cc2)oc2cc(O)cc(O)c12 [APIGENIN]	–	–	28.8 µM (inactive)	18.2 µM (inactive)	33.5 µM (inactive)	17.5 µM (inactive)	24.2 µM (inactive)	–	–
O=C(/C=C/c1ccc(Oc2cc(C(=O)/C=C/c3ccc(O)cc3)c(O)cc2O)cc1)c1ccc(O)cc1O [RHUSCHALCONE II]	–	–	–	–	–	–	–	–	5.93 µM (inactive)
COc1cc(-c2oc3c(OC)c(OC)cc(O)c3c(=O)c2OC)ccc1O [TERNATIN]	3.7 µM (inactive)	–	> 100 µM (inactive)	3.98 µM (inactive)	–	6.49 µM (inactive)	2.2 µM (inactive)	> 100 µM (inactive)	8.32 µM (inactive)
